Entries after “also recorded” stand apart in the source; their conditions may differ. Structures can show the parent of a compound that is named as a salt. Where two headings read alike, the source gives them in different places.
What was measured:
[1] = Plasma pharmacokinetics of TG101348, non-compartmental analysis; assay type: in vivo, human; details: for AUC(0-t) / Cmax / half-life / Tmax: human, plasma; for Tmax: median
Method: The concentration-time curves of TG101348 in plasma were evaluated by a non-compartmental analysis (with the use of WinNonlin® software, version 5.2).

[2] = system: IL-6, IL-8, IL-2 and TNF-a; assay: Cytokine levels, multiplexed sandwich ELISAs; assay type: in vivo, human
Method: Samples for cytokine measurement were collected at baseline and every 4 weeks thereafter. Cytokine levels were measured using multiplexed sandwich ELISAs (Millipore, St. Charles, Mo.).

[3] = oral, 30 mg/day (n = 3), multiple daily doses, Cycle 1, Day 28, mean
[4] = oral, 60 mg/day (n = 3), multiple daily doses, Cycle 1, Day 28, mean
[5] = oral, 120 mg/day (n = 3), multiple daily doses, Cycle 1, Day 28, mean
[6] = oral, 240 mg/day (n = 3), multiple daily doses, Cycle 1, Day 28, mean
[7] = oral, 360 mg/day (n = 3), multiple daily doses, Cycle 1, Day 28, mean
[8] = oral, 520 mg/day (n = 3), multiple daily doses, Cycle 1, Day 28, mean
[9] = oral, 680 mg/day (n = 27), multiple daily doses, Cycle 1, Day 28, mean
[10] = oral, 800 mg/day (n = 5), multiple daily doses, Cycle 1, Day 28, mean
[11] = over a 27-fold increase in dose

Cc1cnc(Nc2ccc(OCCN3CCCC3)cc2)nc1Nc1cccc(S(=O)(=O)NC(C)(C)C)c1 [TG101348, N-tert-butyl-3-[(5-methyl-2-{[4-(2-pyrrolidin-1-ylethoxy)phenyl]amino}pyrimidin-4-yl)amino]benzenesulfonamide dihydrochloride monohydrate]
Dose proportionality of plasma PK parameters (Cmax and AUC0-t) ([1]; 30 to 800 mg/day): greater than dose-proportional increases
AUC(0-t) [1, 3]: 807 ng·h/mL
Cmax [1, 3]: 81.8 ng/mL
half-life ([1]; oral, 30 mg/day (n = 3), multiple daily doses, Cycle 1, Day 28, mean, read-out: T1/2 (terminal half-life) (converted)): 20.9 h
Tmax ([1]; oral, 30 mg/day (n = 3), multiple daily doses, Cycle 1, Day 28): 2 h
AUC(0-t) [1, 4]: 2430 ng·h/mL
Cmax [1, 4]: 257 ng/mL
half-life ([1]; oral, 60 mg/day (n = 3), multiple daily doses, Cycle 1, Day 28, mean, read-out: T1/2 (terminal half-life) (converted)): 15.7 h
Tmax ([1]; oral, 60 mg/day (n = 3), multiple daily doses, Cycle 1, Day 28): 1 h
AUC(0-t) [1, 5]: 7650 ng·h/mL
Cmax [1, 5]: 557 ng/mL
half-life ([1]; oral, 120 mg/day (n = 3), multiple daily doses, Cycle 1, Day 28, mean, read-out: T1/2 (terminal half-life) (converted)): 24.4 h
Tmax ([1]; oral, 120 mg/day (n = 3), multiple daily doses, Cycle 1, Day 28): 2 h
AUC(0-t) [1, 6]: 26200 ng·h/mL
Cmax [1, 6]: 1800 ng/mL
half-life ([1]; oral, 240 mg/day (n = 3), multiple daily doses, Cycle 1, Day 28, mean, read-out: T1/2 (terminal half-life) (converted)): 20.8 h
Tmax ([1]; oral, 240 mg/day (n = 3), multiple daily doses, Cycle 1, Day 28): 2 h
AUC(0-t) [1, 7]: 23900 ng·h/mL
Cmax [1, 7]: 1720 ng/mL
half-life ([1]; oral, 360 mg/day (n = 3), multiple daily doses, Cycle 1, Day 28, mean, read-out: T1/2 (terminal half-life) (converted)): 21.4 h
Tmax ([1]; oral, 360 mg/day (n = 3), multiple daily doses, Cycle 1, Day 28): 2 h
AUC(0-t) [1, 8]: 61700 ng·h/mL
Cmax [1, 8]: 3890 ng/mL
half-life ([1]; oral, 520 mg/day (n = 3), multiple daily doses, Cycle 1, Day 28, mean, read-out: T1/2 (terminal half-life) (converted)): 20.9 h
Tmax ([1]; oral, 520 mg/day (n = 3), multiple daily doses, Cycle 1, Day 28): 4 h
AUC(0-t) [1, 9]: 55100 ng·h/mL
Cmax [1, 9]: 3060 ng/mL
half-life ([1]; oral, 680 mg/day (n = 27), multiple daily doses, Cycle 1, Day 28, mean, read-out: T1/2 (terminal half-life) (converted)): 33.7 h
Tmax ([1]; oral, 680 mg/day (n = 27), multiple daily doses, Cycle 1, Day 28): 4 h
AUC(0-t) [1, 10]: 70800 ng·h/mL
Cmax [1, 10]: 4380 ng/mL
half-life ([1]; oral, 800 mg/day (n = 5), multiple daily doses, Cycle 1, Day 28, mean, read-out: T1/2 (terminal half-life) (converted)): 24 h
Tmax ([1]; oral, 800 mg/day (n = 5), multiple daily doses, Cycle 1, Day 28): 2.25 h
half-life ([1]; oral, across all doses, read-out: Terminal phase half-life at steady state): 16 to 34 h
Time after dosing at which peak plasma concentration was achieved ([1]; oral, once daily): 1 to 4 h
Increase in mean steady-state AUC0-t [1, 11]: ~88 fold
Increase in mean steady-state Cmax [1, 11]: approximately 54 fold
Serum EPO and TPO levels relative to baseline ([2]; after treatment initiation, data not shown): increases in serum EPO and to a lesser extent TPO levels
Absolute difference in IL-2 from baseline ([2]; cycle 6, 1 subject (101-039)): -1827 pg/mL
Absolute difference in IL-6 from baseline ([2]; cycle 6, 1 subject (101-039)): -4719 pg/mL
Effect on levels of pro-inflammatory cytokines (IL-6, IL-2, IL-8, TNF-a) ([2]; relative to baseline during treatment, dihydrochloride monohydrate): no significant changes on cytokine levels; also recorded: minimal effect on serum levels of proinflammatory cytokines; also recorded: no consistent changes

— patent US20130252988A1, “COMPOSITIONS AND METHODS FOR TREATING MYELOFIBROSIS” (TARGEGEN, INC., priority 2010, published 2013)
